Assay results as given in paper PMC8197720, “Targeted radioimmunotherapy with the iodine-131-labeled caerin 1.1 peptide for human anaplastic thyroid cancer in nude mice” (Annals of Nuclear Medicine, 2021).

Assays:
[1] = tested on: CAL-62 tumor; assay: CAL-62 subcutaneous xenograft treatment experiment with H&E and TUNEL staining; type: in vivo, BALB/C nude mice; settings: tumor sections after treatment, compared to PBS group
Description: (§1) To reduce the unnecessary thyroid uptake of ^131I, before the in vivo experiments, all nude mice were fed potassium iodide in a concentration of 0.1% for 3 days to saturate the thyroid. CAL-62 tumor-bearing mice were randomly divided into four groups (n = 5 per group) that received one of the following treatments: PBS, F1 only, ^131I-F1, ^131I only. The mice were injected intratumorally with 100 µl PBS containing 8 µg of F1 peptide, 200 µCi of ^131I or 8 µg of F1 peptide labeled with 200 µCi ^131I every 3 days for a total of three times. Then, 3 days after the final treatment, the mice were sacrificed, and the tumors were isolated and weighed.

[2] = Body weight of CAL-62 tumor-bearing mice under treatment; type: in vivo, BALB/C nude mice; settings: intratumoral, 8 µg F1 and/or 200 µCi 131I every 3 days, three times, n = 5, mean ± SD
Description: as §1
Next, we studied whether F1 was able to inhibit CAL-62 cell growth in vivo. Nude mice were subcutaneously injected with 5 × 10^5 CAL-62 cells. When the tumor diameters were close to 6 mm, the mice were treated with 100 µl PBS containing 8 µg of F1 peptide, 200 µCi of ^131I or 8 µg of F1 peptide labeled with 200 µCi ^131I every 3 days for a total of three times. […] The mice were euthanized, and the tumors were isolated and weighed.

[3] = tested on: cervical cancer cell (TC-1); settings: 30 μg of peptide; cited from earlier work
From the text: First, ^131I-F1 was successfully synthesized using the chloramine-T method. […] Furthermore, a subcutaneous xenograft model was used to investigate the antitumor activity of ^131I-F ...

Row | Compound | H&E staining of tumors (ablation/necrosis of tumor cells) [1] | Weight of the mice three days after the final treatment [2] [g] | Inhibitory effect on TC-1 in vivo [3]
1 | [131I-].[Na+] [^131I, iodine-131] | only a few necrosis events | 16.43 ± 1.386 | –
2 | caerin 1.9 [F3] | – | – | significant inhibitory effect
